From patent publication US9988371B2, “Benzimidazole analogues and related methods” (The Arizona Board of Regents, on Behalf of the University …, priority 2014, dated 2018)

Columns and labels:
parental Ba/F3 cells = experiment: Proliferation of parental Ba/F3 cells; assay type: cell-based, murine; details: parental Ba/F3, with IL-3
Experimental: FIG. 6: Activity of Pz-1 on NCOA4-RET oncogene-driven IL-3-independent proliferation of murine Ba/F3 cells. […] Ba/F3 and Ba/F3 NCOA4-RET cells were incubated with vehicle (NT) or the indicated concentration of Pz-1 in complete medium and counted at different time points. Data are the mean±SD of one experiment performed in triplicate. Murine interleukin-3 (IL-3) dependent pro-B Ba/F3 cells were from ATCC. Ba/F3 cells stably expressing NCOA4-RET (RET/PTC3) protein were generated by transfecting long isoform (RET-51) of NCOA4-RET by electroporation. Parental and Ba/F3-NCOA4-RET cells were cultured in RPMI 1640 with 10% FBS; parental cells required also 10 ng/ml IL-3. IC50 doses (with Confidence Intervals) are indicated.
Nthy-ory-3-1 and TTcells were seeded in 60-mm dishes. Cells were kept in 2% (Nthy-ori-3-1) or 10% (TT) fetal calf serum. One day after plating, different concentrations of Pz-1 or vehicle were added to the medium and changed every 2-3 days. Cells were counted every 2-3 days. […] Parental and RET/PTC-expressing Ba/F3 were kept in 10% fetal calf serum in 6-multi wells and counted every day for 4 consecutive days, changing media every 2 days. […] IC50 doses were calculated through a curve fitting analysis from the last day of growth curves using the PRISM software program (Graphpad Software Inc). […]

[1] = system: intracellular signaling (SHC, MAPK, p70S6K and S6RP); experiment: In vivo target inhibition, RET phosphorylation and signaling in HRAS/G12V-induced tumors; parameters: species or system nude mice; details: 48 hr, 1.0 or 3.0 mg/kg daily
Experimental: FIG. 9: Photographs of blots showing effects of Pz-1 on cellular phosphorylation events in tumors induced in nude mice (from FIG. 8) by injection of NIH3T3 fibroblasts transformed by RET/C634Y or HRAS/G12V. […] Some of the vehicle-treated tumors, at the end of the tumor growth experiment described in FIG. 8, were treated for 48 hr with different doses of Pz-1 (TR) or left untreated (NT). At the end of the treatment, 50 μg of tumor protein lysates were subjected to immunoblotting with anti-phospho-Y1062 (αp1062) and anti-phospho-905 (αpY905) RET antibodies, anti-phospho-MAPK (αpMAPK, T302/Y304), anti-phospho-SHC (αpSHC, Y317), anti-phospho-p70S6K (αpp70S6K, T389), anti-phospho-S6RP (αpS6RP, S235/S236), and anti-phospho-VEGFR2 (αpVEGFR2 pY1175) antibodies. The blots were normalized using anti-RET (αRET), anti-SHC (αSHC), anti-MAPK (αMAPK), anti-p70S6K (αp70S6K), anti-S6RP (αS6RP) or anti-VEGFR2 (αVEGFR2) antibodies.
Some of the vehicle-treated tumors, at the end of the tumor growth experiment reported in FIG. 8, were treated for 48 hr with different doses of Pz-1 (1.0 or 3.0 mg/kg daily) or left untreated. […]

For `Cn1cc(-c2ccc3c(c2)ncn3-c2ccc(CC(=O)Nc3cc(C(C)(C)C)on3)cc2)cn1` [Pz-1, N-(5-(tert-butyl)isoxazol-3-yl)-2-(4-(5-(1-methyl-1H-pyrazol-4-yl)-1H-benzo[d]imidazol-1-yl)phenyl)acetamide], the inhibition of proliferation (parental Ba/F3 cells) was “inhibition of proliferation by Pz-1 for Ba/F3-NCOA4-RET but not parental Ba/F3” and the “RET phosphorylation and intracellular signaling (SHC, MAPK, p70S6K and S6RP) in tumors” value [1] was “only in RET/C634Y-induced tumors”.
